Biological target: T1, glutathione S-transferase (GST)-linked full-length human Syk protein (Homo sapiens, UniProt P43405)
T1 construct: glutathione S-transferase (GST)-linked full-length human Syk protein; purchased Carna Biosciences; host or cells: Baculovirus expression system
Assay: Syk enzyme assay
Format: biochemical
Conditions: 0.83 nM Syk, time-resolved fluorescence; read-out: IC50 of Syk-inhibitory activity
Method: A glutathione S-transferase (GST)-linked full-length human Syk protein (Carna Biosciences), which had been generated using a Baculovirus expression system, was used in the Syk enzyme assay.
7.5 μl of a reaction solution (0.83 nM Syk, 20 mM HEPES, 10 mM MgCl2, 50 mM NaCl, 2 mM DTT, 0.05% BSA, pH 7.0) containing a Syk protein and a predetermined concentration of a test compound was shaken for 2 minutes, and it was then left at rest at room temperature for 13 minutes. Thereafter, 0.5 μM substrate peptide (Biotin-[…]-NH2) and 5 μL of a solution containing 67.5 μM ATP were added to the reaction solution, and the obtained mixture was then shaken for 2 minutes. The reaction solution was further left at rest at room temperature for 40 minutes, so as to carry out an enzyme reaction.
Thereafter, 50 μL of a reaction termination solution [60 nM APC-SA, 0.45 μg/mL Eu-PT66, 30 mM HEPES (pH 7.0), 150 mM KF, 30 mM EDTA, 0.15% BSA, 0.075% Tween20] containing Allophycocyanin-Streptavidin (APC-SA; PerkinElmer) and an Eu-W1024-labeled anti-phosphotyrosine PT66 antibody (Eu-PT66; PerkinElmer) was added to the reaction solution to terminate the enzyme reaction. At the same time, the reaction solution was left at rest at room temperature for 1 hour, so as to carry out an antigen-antibody reaction. Thereafter, using EnVision (PerkinElmer), the level of time-resolved fluorescence was measured at 615 nm and 665 nm, so that the phosphorylation of the substrate peptide was measured.
The following are used in Table 5 to denote standards for evaluating IC50 of Syk-inhibitory activity. • A: Up to 10 nM • B: 10 to 50 nM • C: 50 to 100 nM

| SMILES | IC50 [nM] |
| --- | --- |
| Cc1ncc(Nc2nc(NC3[C@@H](OCc4ccccc4)CCC[C@@H]3N)c(F)cc2C(N)=O)cc1-n1nccn1 (mixture of isomers) [Example 2-484, Mixture of 6-((2-amino-6-(benzyloxy)cyclohexyl)amino)-5-fluoro-2-((6-methyl-5-(2H-1,2,3-triazol-2-yl)pyridin-3-yl)amino)nicotinamide (1S,2S,6S),(1R,2R,6R)] | 10 to 50 |
| Cc1ncc(Nc2nc(N[C@@H]3CC[C@@H](OCc4ccccc4)C[C@@H]3N)c(F)cc2C(N)=O)cc1-n1nccn1 (racemic) [Example 2-528, Mixture of 6-((2-amino-4-(benzyloxy)cyclohexyl)amino)-5-fluoro-2-((6-methyl-5-(2H-1,2,3-triazol-2-yl)pyridin-3-yl)amino)nicotinamide (1R,2S,4R), (1S,2R,4S)] | 50 to 100 |
| Cc1ncc(Nc2nc(N[C@@H]3CC[C@@H](O)C[C@@H]3N)c(F)cc2C(N)=O)cc1-n1nccn1 (racemic) [Example 2-531, Mixture of 6-((2-amino-4-hydroxycyclohexyl)amino)-5-fluoro-2-((6-methyl-5-(2H-1,2,3-triazol-2-yl)pyridin-3-yl)amino)nicotinamide (1R,2S,4R), (1S,2R,4S)] | 10 to 50 |
| Cc1ncc(Nc2nc(N[C@@H]3CCC(F)(F)C[C@@H]3N)c(F)cc2C(N)=O)cc1-n1nccn1 (racemic) [Example 2-564, Mixture of 6-((2-amino-4,4-difluorocyclohexyl)amino)-5-fluoro-2-((6-methyl-5-(2H-1,2,3-triazol-2-yl)pyridin-3-yl)amino)nicotinamide (1R,2S), (1S,2R)] | 10 to 50 |
| Cc1nn(-c2cncc(Nc3nc(N[C@H]4CCCC[C@H]4N)c(F)cc3C(N)=O)c2)nc1C (stereo in doubt) [Example 2-533, 6-(((1S,2R)-2-aminocyclohexyl)amino)-2-((5-(4,5-dimethyl-2H-1,2,3-triazol-2-yl)pyridin-3-yl)amino)-5-fluoronicotinamide] | 50 to 100 |
| CC(C)C[C@@H](Nc1nc(Nc2ccc3c(c2)c(N(C)C)nn3C)c(C(N)=O)cc1F)[C@H](C)N [Example 2-3, 6-(((2S,3R)-2-amino-5-methylhexan-3-yl)amino)-2-((3-(dimethylamino)-1-methyl-1H-indazol-5-yl)amino)-5-fluoronicotinamide] | < 10 |
| CC(C)C[C@@H](Nc1nc(Nc2cccc3c2cnn3C)c(C(N)=O)cc1F)[C@H](C)N [Example 2-12, 6-(((2S,3R)-2-amino-5-methylhexan-3-yl)amino)-5-fluoro-2-((1-methyl-1H-indazol-4-yl)amino)nicotinamide] | < 10 |
| C[C@H](N)[C@@H](CC1CC1)Nc1nc(Nc2ccc3nn(C)c(N(C)C)c3c2)c(C(N)=O)cc1F [Example 2-14, 6-(((2R,3S)-3-amino-1-cyclopropylbutan-2-yl)amino)-2-((3-(dimethylamino)-2-methyl-2H-indazol-5-yl)amino)-5-fluoronicotinamide] | 10 to 50 |
| CC(C)C[C@@H](Nc1nc(Nc2ccc3nn(C)c(N(C)C)c3c2)c(C(N)=O)cc1F)[C@H](C)N [Example 2-15, 6-(((2S,3R)-2-amino-5-methylhexan-3-yl)amino)-2-((3-(dimethylamino)-2-methyl-2H-indazol-5-yl)amino)-5-fluoronicotinamide] | < 10 |
| CC[C@@H](Nc1nc(Nc2ccc3nn(C)c(N(C)C)c3c2)c(C(N)=O)cc1F)[C@H](C)N [Example 2-16, 6-(((2S,3R)-2-aminopentan-3-yl)amino)-2-((3-(dimethylamino)-2-methyl-2H-indazol-5-yl)amino)-5-fluoronicotinamide] | 10 to 50 |
| COc1cc(Nc2nc(N[C@H](C3CCC3)[C@H](C)N)c(F)cc2C(N)=O)ccc1C [Example 2-30, 6-(((1R,2S)-2-amino-1-cyclobutylpropyl)amino)-5-Fluoro-2-((3-methoxy-4-methylphenyl)amino)nicotinamide] | < 10 |
| CC[C@@H](Nc1nc(Nc2ccnc(OCCOC)c2)c(C(N)=O)cc1F)[C@H](C)N [Example 2-34, 6-(((2S,3R)-2-aminopentan-3-yl)amino)-5-fluoro-2-((2-(2-methoxyethoxy)pyridin-4-yl)amino)nicotinamide] | 10 to 50 |
| CC[C@H](N)[C@@H](C)Nc1nc(Nc2cnc(C)c(C)c2)c(C(N)=O)cc1F [Example 2-35, 6-(((2R,3S)-3-aminopentan-2-yl)amino)-2-((5,6-dimethylpyridin-3-yl)amino)-5-fluoronicotinamide] | 10 to 50 |
| COc1nn(CC(F)F)c2ccc(Nc3nc(N[C@H](CC4CC4)[C@H](C)N)c(F)cc3C(N)=O)cc12 [Example 2-53, 6-(((2R,3S)-3-amino-1-cyclopropylbutan-2-yl)amino)-2-((1-(2,2-difluoroethyl)-3-methoxy-1H-indazol-5-yl)amino)-5-fluoronicotinamide] | < 10 |
| CC[C@@H](Nc1nc(Nc2ccc3c(c2)c(OC)nn3CC(F)F)c(C(N)=O)cc1F)[C@H](C)N [Example 2-55, 6-(((2S,3R)-2-aminopentan-3-yl)amino)-2-((1-(2,2-difluoroethyl)-3-methoxy-1H-indazol-5-yl)amino)-5-fluoronicotinainide] | < 10 |
| C[C@H](N)[C@H](Nc1nc(Nc2ccc(F)c(F)c2)c(C(N)=O)cc1F)C1CC1 [Example 2-59, 6-(((1R,2S)-2-amino-1-cyclopropylpropyl)amino)-2-((3,4-difluorophenyl)amino)-5-fluoronicotinamide] | 10 to 50 |
| C[C@H](N)[C@H](Nc1nc(Nc2ccc(F)cc2)c(C(N)=O)cc1F)C1CCC1 [Example 2-60, 6-(((1R,2S)-2-amino-1-cyclobutylpropyl)amino)-5-fluoro-2-((4-fluorophenyl)amino)nicotinamide] | 10 to 50 |
| C[C@H](N)[C@H](Nc1nc(Nc2ccc(F)c(F)c2)c(C(N)=O)cc1F)C1CCC1 [Example 2-61, 6-(((1R,2S)-2-amino-1-cyclobutylpropyl)amino)-2-((3,4-difluorophenyl)amino)-5-fluoronicotinamide] | 10 to 50 |
| COc1ncc(Nc2nc(N[C@H](C3CC3)[C@H](C)N)c(F)cc2C(N)=O)cc1F [Example 2-62, 6-(((1R,2S)-2-amino-1-cyclopropylpropyl)amino)-5-fluoro-2-((5-fluoro-6-methoxypyridin-3-yl)amino)nicotinamide.] | 10 to 50 |
| COc1ncc(Nc2nc(N[C@H](C3CCC3)[C@H](C)N)c(F)cc2C(N)=O)cc1F [Example 2-63, 6-(((1R,2S)-2-amino-1-cyclobutylpropyl)amino)-5-fluoro-2-((5-fluoro-6-methoxypyridin-3-yl)amino)nicotinamide.] | 10 to 50 |
| CC[C@@H](Nc1nc(Nc2cnc(OC)c(F)c2)c(C(N)=O)cc1F)[C@H](C)N [Example 2-64, 6-(((2S,3R)-2-aminopentan-3-yl)amino)-5-fluoro-2-((5-fluoro-6-methoxypyridin-3-yl)amino)nicotinamide] | 10 to 50 |
| CCC[C@@H](Nc1nc(Nc2cnc(OC)c(F)c2)c(C(N)=O)cc1F)[C@H](C)N [Example 2-65, 6-(((2S,3R)-2-aminohexan-3-yl)amino)-5-fluoro-2-((5-fluoro-6-methoxypyridin-3-yl)amino)nicotinamide] | 10 to 50 |
| NC(=O)c1cc(F)c(N[C@@H]2CCCC[C@@H]2N)nc1Nc1cnc(-n2ccnn2)c(F)c1 [Example 2-68, 6-(((1R,2S)-2-aminocyclohexyl)amino)-5-fluoro-2-((5-fluoro-6-(1H-1,2,3-triazol-1-yl)pyridin-3-yl)amino)nicotinamide] | 10 to 50 |

— patent publication US9051310B2, “Nicotinamide derivative or salt thereof” (FUJIFILM Corporation, priority 2011, dated 2015)
